# Structures can show the parent of a compound that is named as a salt.
# Molecular target: T1, cdMMP-8 (Homo sapiens, UniProt P22894)
# T1 construct: recombinant catalytic domain of human neutrophile Collagenase (cdMMP-8^Met80); made in house; host or cells: E. coli
# Assay: MMP microfluorometric profiling assay (fluorogenic Mca-peptide substrate)
# Assay type: biochemical
# Conditions: not given
# Method: The tested MMP enzymes were prepared more specifically in the laboratories of the applicants, with the exception of MMP-1. MMP-1 from human rheumatoid synovial fibroblasts was purchased from Calbiochem-Novabiochem Corporation, LaJolla. Preparation of the recombinant catalytic domain of human Gelatinase A (cdMMP-2): The catalytic domain of Pro-Gelatinase A was prepared using an E. coli expression system according to the method described by Kröger et al^[19]. The proenzyme was activated with 0.5 mM APMA at 37°C prior to use in the assay. […] Preparation of PMNL-Gelatinase (MMP-9): Latent PMNL-pro-Gelatinase was prepared from human plasma buffy coat as described by Tschesche et al^[21]. PMNL-pro-Gelatinase was activated prior to use by incubation with Trypsin at 37°C for 10 min. Inactivation of Trypsin was accomplished with TKI. […] The overexpressed protein was isolated as inclusion bodies and the renatured protein was purified by affinity chromatography with a hydroxamate inhibitor coupled column as described^[22]. Preparation of the recombinant catalytic domain of human Collagenase-3 (cdMMP-13): Human pro-cdMMP-13 was prepared using an E. coli expression system according to the method described^[23]. The isolated pro-cdMMP-13 was activated prior to use by incubation with 5 mM HgCl2 for 2 h at 37°C.
# The enzymatic activity was measured using a modified version of a resonance energy transfer fluorogenic assay as described^[26]. […] The fluorescent MCA-group is quenched by resonance energy transfer to the 2,4-dinitrophenyl group. Matrix metalloproteinases cleave this substrate at the Gly-Leu bond. Cleavage results in the loss of energy transfer and a large increase in fluorescence of the MCA group. This substrate is commercially available from Bachem, Switzerland.
# Enzyme inhibition assays were carried out in MRB which consisted of 50 mM HEPES/NaOH, pH 7.0, 10 mM CaCl2 and 0,02% (w/v) PEG 8000 at 25°C. MMP microfluorometric profiling assay was done in white U-bottomed 96-well plates (Microfluor 1 White, Dynex, USA) with a final substrate concentration of 6 µM MCA-peptide, approximately 0.3 to 5 nM MMP with variable inhibitor concentrations and 2% DMSO vehicle. From a 1.5 mM stock (100% DMSO) the inhibitors were serially diluted with MRB to 15, 10, 5, 3, 1, 0.6, 0.3, 0.1, 0.05, 0.01 and 0.005 µM final assay concentration. Column 1, rows A through H, contained only DMSO for the "enzyme-only" wells in the assay. […] Each measurement was done in triplicate to ensure statistically significant results. The experiment was further controlled for background fluorescence of the substrate, for fluorescence of fully cleaved substrate and for fluorescence quenching or augmentation from solutions containing the test compounds.
# Datapoints from eight different MMPs generated on the SpectraFluor Plus were directly visualized on a master Excel spreadsheet. The response of inhibition was determinated for each inhibitor concentration by comparing the amount of hydrolysis (fluorescence units generated over 30 minutes of hydrolysis) of wells containing compound with the "enzyme-only" wells in column 1. With the program GraFit (Erithacus Software Limited) a 4 parameter logistic fit to the dose-response data was used to calculate IC50 values for each compound.
# T1 sequence (P22894 100-262 limits assumed): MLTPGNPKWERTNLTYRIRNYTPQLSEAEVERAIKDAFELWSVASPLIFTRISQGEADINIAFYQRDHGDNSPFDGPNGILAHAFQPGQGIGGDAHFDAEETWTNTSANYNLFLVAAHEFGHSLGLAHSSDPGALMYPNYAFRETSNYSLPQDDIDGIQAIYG
row,SMILES,IC50
1,"C[C@H](NS(=O)(=O)c1ccccc1)C(=O)NC1=NN=C(c2ccc(C(F)(F)F)cc2)CS1 [Example 4, (2S)-2-[(Phenylsulfonyl)amino]-N-{5-[4-(trifluormethyl)phenyl]-6H-1,3,4-thiadiazin-2-yl}propanamide]",515 nM
2,"C[C@H](NS(=O)(=O)N1CCOCC1)C(=O)NC1=NN=C(c2ccc(Cl)cc2)CS1 [Example 28, (2S)-N-[5-(4-Chlorophenyl)-6H-1,3,4-thiadiazin-2yl-]-2-[(4-morpholinylsulfonyl)amino]propanamide]",296 nM

# Same assay, conditions: cdMMP-8, @ 15 (µM)
row,SMILES,percent inhibition
1,"O=C(CC1NC(=O)NC1=O)NC1=NN=C(c2ccc(C3CCCCC3)cc2)CS1 (stereo not drawn) [Example 25, N-[5-(4-Cyclohexylphenyl)-6H-1,3,4-thiadiazin-2-yl]-2-(2,5-dioxo-4-imidazolidinyl)acetamide]",56%^a)@ 15

# Same assay, conditions: read-out: cdMMP-8 IC50
row,SMILES,IC50
1,"C[C@@H](NS(=O)(=O)c1ccccc1)C(=O)NC1=NN=C(c2ccc(C#N)cc2)CS1 [Example 1, (2R)-N-[5-(4-Cyanophenyl)-6H-1,3,4-thiadiazine-2-yl]-2-[(phenylsulfonyl)amino]-propanamide]",468 nM
2,"CC(C)[C@@H](NS(=O)(=O)c1ccccc1)C(=O)NC1=NN=C(c2ccc(Cl)cc2)CS1 [Example 2, (2R)-N-[5-(4-Chlorophenyl)-6H-1,3,4-thiadiazin-2-yl]-3-methyl-2-[(phenylsulfonyl)amino]butanamide]",8630 nM
3,"C[C@H](NS(=O)(=O)c1ccccc1)C(=O)NC1=NN=C(c2ccc(C#N)cc2)CS1 [Example 3, (2S)-N-[5-(4-Cyanophenyl)-6H-1,3,4-thiadiazin-2-yl]-2-[(phenylsulfonyl)amino]-propanamide]",440 nM
4,"C[C@H](NS(=O)(=O)c1ccccc1)C(=O)NC1=NN=C(c2ccc(Br)cc2)CS1 [Example 6, (2S)-N-[5-(4-Bromophenyl)-6H-1,3,4-thiadiazin-2-yl]-2-[(phenylsulfonyl)amino]-propanamide]",231 nM
5,"C[C@H](NS(=O)(=O)c1ccccc1)C(=O)NC1=NN=C(c2ccc([N+](=O)[O-])cc2)CS1 [Example 9, (2S)-N-[5-(4-Nitrophenyl)-6H-1,3,4-thiadiazin-2-yl]-2-[(phenylsulfonyl)amino]-propanamide]",337 nM
6,"C[C@H](NS(=O)(=O)c1ccccc1)C(=O)NC1=NN=C(c2ccc(Cl)s2)CS1 [Example 10, (2S)-N-[5-(5-Chloro-2-thienyl)-6H-1,3,4-thiadiazin-2-yl]-2-[(phenylsulfonyl)-amino]propanamide]",371 nM
7,"COc1ccc(C2=NN=C(NC(=O)[C@H](C)NS(=O)(=O)c3ccccc3)SC2)cc1 [Example 12, (2S)-N-[5-(4-Methoxyphenyl)-6H-1,3,4-thiadiazin-2-yl]-2-[(phenylsulfonyl)-amino]propanamide]",354 nM
8,"COc1ccc(S(=O)(=O)NCC(=O)NC2=NN=C(c3c(F)c(F)c(F)c(F)c3F)CS2)cc1 [Example 16, 2-{[(4-Methoxyphenyl)sulfonyl]amino}-N-[5-(2,3,4,5,6-pentafluorophenyl)-6H-1,3,4-thiadiazin-2-yl]acetamide]",527 nM
9,"COc1ccc(S(=O)(=O)N[C@@H](C)C(=O)NC2=NN=C(c3ccc(C)cc3)CS2)cc1 [Example 17, (2S)-2-{[(4-Methoxyphenyl)sulfonyl]amino}-N-[5-(4-methylphenyl)-6H-1,3,4-thiadiazin-2-yl]propanamide]",599 nM
10,"C=CCNC1=NN=C(c2ccc(Cl)cc2)CS1 [Example 31, N-Allyl-5-(4-chlorophenyl)-6H-1,3,4-thiadiazin-2-amine hydrobromide]",51900 nM

# The remaining lines, values ahead:
row,IC50,SMILES
1,492 nM,"CC(C)(C)c1ccc(S(=O)(=O)NCC(=O)NC2=NN=C(c3ccc(Cl)cc3Cl)CS2)cc1 [Example 18, 2-{[(4-tert-Butylphenyl)sulfonyl]amino}-N-[5-(2,4-dichlorophenyl)-6H-1,3,4-thiadiazin-2-yl]acetamide]"
2,306 nM,"COc1ccc(S(=O)(=O)NCC(=O)NC2=NN=C(c3ccc(Cl)cc3Cl)CS2)cc1 [Example 19, N-[5-(2,4-Dichlorophenyl)-6H-1,3,4-thiadiazin-2-yl]-2-{[(4-methoxyphenyl)-sulfonyl]amino}acetamide]"
3,1580 nM,"CC(C)[C@H](NS(=O)(=O)c1ccccc1)C(=O)NC1=NN=C(c2ccc(Cl)cc2)CS1 [Example 22, (2S)-N-[5-(4-Chlorophenyl)-6H-1,3,4-thiadiazin-2-yl]-3-methyl-2-[(phenylsulfonyl)amino]butanamide]"
4,648 nM,"O=C(CC1NC(=O)NC1=O)NC1=NN=C(c2ccc(Cl)cc2)CS1 (stereo not drawn) [Example 23, N-[5-(4-Chlorophenyl)-6H-1,3,4-thiadiazin-2-yl]-2-(2,5-dioxo-4-imidazolidinyl)-acetamide]"
5,578 nM,"O=C(CC1NC(=O)NC1=O)NC1=NN=C(c2ccc(Br)cc2)CS1 (stereo not drawn) [Example 24, N-[5-(4-Bromophenyl)-6H-1,3,4-thiadiazin-2-yl]-2-(2,5-dioxo-4-imidazolidinyl)-acetamide]"
6,1170 nM,"O=C(CC1NC(=O)NC1=O)NC1=NN=C(c2ccc(N3CCCC3)cc2)CS1 (stereo not drawn) [Example 26, 2-(2,5-Dioxo-4-imidazolidinyl)-N-{5-[4-(1-pyrrolidinyl)phenyl]-6H-1,3,4-thiadiazin-2-yl}acetamide]"
7,377 nM,"C[C@H](NS(=O)(=O)c1cccnc1)C(=O)NC1=NN=C(c2ccc(Cl)cc2)CS1 [Example 29, (2S)-N-[5-(4-Chlorophenyl)-6H-1,3,4-thiadiazin-2-yl]-2-[(3-pyridylsulfonyl)-amino]propanamide]"
8,692 nM,"O=C1C[C@@H](C(=O)NC2=NN=C(c3ccc(Cl)cc3)CS2)NC(=O)N1 [Example 30, (4S)-N-[5-(4-Chlorophenyl)-6H-1,3,4-thiadiazin-2-yl]-2,6-dioxohexahydro-4-pyrimidinecarboxamide]"
